Assay results as given in publication PMC9028786, “The Ribosome Is the Ultimate Receptor for Trypsin Modulating Oostatic Factor (TMOF)” (Biomolecules, 2022).
Ends that are not written are not given here.

Key:
E. coli ribosome = experiment: Binding of AeaTMOF-FITC to purified E. coli ribosomes; set-up: species or system Escherichia coli
Procedure: The purification of E. coli ribosomes is a modification of earlier published methods. Briefly, E. coli (BL21) cells were grown in LB medium for 24 h to OD600 of 1.1, and the cells were centrifuged at 5000 rpm at 6 °C for 5 min. The supernatant was discarded and the pellet was washed with 40 mM HEPES-KOH pH7.4, 100 mM NaCl, and 2 mM Mg(OAc)2 buffer. The suspension was centrifuged at 6000 rpm for 5 min, the supernatant discarded, and the pellet was frozen at −80 °C and stored overnight. The frozen pellet was taken up in 10 mL of sonication buffer of 20 mM HEPES-KOH pH 7.5, 100 NH4OAc, 6 mM βME, 0.5 mM Na-EDTA, and 0.5% Tween 20 containing 100 units of RNase inhibitor, and the solution was sonicated at 40% power for 10 s, 50% power for 10 s, and 60% power for 20 s. During the sonication, the tube was immersed in an ice bath. The lysed cell solution (25 mL) in sonication buffer was centrifuged at 30,000 g in a Beckman ultracentrifuge using a 70Ti centrifuge rotor for 30 min at 4 °C. After centrifugation, the supernatant was collected, and the pellet discarded. […] The amount of the protein in the ribosome preparation and the ribosomal RNA was determined (2.28 mg/mL protein and 3.932 mg/mL ribosomal RNA). […]
Purified E. coli ribosomes (1 μL, 9.4 μg) in tight association buffer (20 mM HEPES-KOH pH 7.6, 6 mM Mg(OAc)2, 30 mM NH4OAc, and 6 mM βME) were incubated in Eppendorf tubes containing 100 μL of tight association buffer and 5 μL of AeaTMOF-FITC (0–0.2 μM) (Specific activity 8333 Fluorescence Units/pmol) for 60 min at 30 °C with gentle shaking. […] The washing by centrifugation with 5% TCA was repeated 3 times, and after the final centrifugation, the pellets were dissolved in 100 μL of PBS containing 0.4N NaOH, and the fluorescence of the dissolved pellets was read in a GloMax multidetector system using a blue filter (Excitation at 490 nm and Emission at 510–570 nm). All data were corrected for nonspecific fluorescence when incubations were run without AeaTMOF-FITC or with AeaTMOF-FITC and without ribosomes. […]

[1] = test system: trypsin mRNA in the gut epithelial cells; settings: gut epithelial cells of Ae. aegypti and Neobellieria bullata; cited from earlier work
Source text: Several of these ABC transporters with 80–100% similarity with the AeaTMOF receptor are also found in several Aedes, Anopheles, and ...

luciferase = experiment: Effect on activity of pre-synthesized luciferase; format: biochemical, Beetle; settings: results not shown
Procedure: Incubations of E. coli S30 extract synthesizing Beetle luciferase in the presence of an increasing concentration of AeaTMOF (0.001 to 750 μM) stopped the biosynthesis of luciferase, diminishing its activity on Beetle luciferin as measured in luminescence units. The activity of the in vitro synthesized luciferase on Beetle luciferin at very low concentration of AeaTMOF (0.001 μM) was similar to luciferase activity without AeaTMOF, and this luminescence was used to calculate the decrease in luminescence (%) after incubation with increasing concentrations of AeaTMOF (Figure 1A). Higher concentrations of AeaTMOF (higher than 0.001 μM) caused a linear decrease in the synthesis of luciferase and a decline in luminescence (%) reaching IC50 (inhibition concentration of 50%) at 1 μM (Figure 1A). […] AeaTMOF is not an inhibitor of luciferase.

bacterial 70 S ribosome = experiment: Inhibition of luciferase translation in E. coli S30 extract; format: biochemical, Escherichia coli
Procedure: To test the effect of AeaTMOF and Oncocin112 (1–13) on the translation of Luciferase by the bacterial 70 S ribosome, an E. coli S30 lysate extract system for circular DNA (Promega) containing a plasmid pBestluc DNA vector (4486 bp) (1 mg/mL) 0.3 μL, amino acid mixture without methionine (1 mM) 1.25 μL, amino acid mixture without Leucine (1 mM) 1.25 μL, S30 premix (including ribosomes) without amino acids 5 μL, S30 extract circular 3.5 μL, RNasin (8 U, 112 ng) 0.2 μL, different concentrations of AeaTMOF or Oncocin112 (1–13) (0.001 μM to 1000 μM), and nuclease-free water to a volume of 12.5 μL were incubated for 2 h at 37 °C. […] After incubation, 87.5 μL of GLO lysis buffer (Promega) containing beetle luciferin was added, mixed, and aliquots (5 μL) were removed, and their luminescence read in a GLOMAX multidetector system. […] The decrease in luminescence (% ± SEM) in the presence of increasing log AeaTMOF or Oncocin112 (1–13) concentrations was then plotted using GrapPad Prism 3.

[2] = test system: E. coli CGSC strain7636 cells expressing SbmA^+; experiment: Growth/viability of E. coli CGSC strain7636 expressing SbmA; format: cell-based, Escherichia coli; settings: 3 and 10 mM peptide, 37 °C, 18 h, p < 0.05 vs control
Procedure: (§1) We aimed to find out if AeaTMOF can also stop bacterial growth as, was shown for the proline-rich Oncocin112 that binds to the bacterial ribosome, stopping protein translation, bacterial growth, and causing bacterial death. E. coli CGSC strain7636 (2.7 × 10^4 cells) SbmA^+, expressing the proline-rich peptides importer SbmA, were incubated in 96-well plate containing 100 μL/well of LB medium, 0.4 mM of IPTG, 0.1 mM of ampicillin, and different concentrations of AeaTMOF and Oncocin112 (1–13) (3 mM and 10 mM) in different wells. The 96-well plate was incubated at 37 °C for 18 h and bacterial growth was followed at 630 nm using Biotech ElX808 absorbance microplate reader. Control wells contained bacterial cells growing without AeaTMOF or oncocin112 (1–13). […] After the incubations in the presence of Oncocin112 (1–13) or AeaTMOF of 10 mM and 3 mM, aliquots (0.5 μL) were removed from each well and spread on LB agar plates containing 0.1 mM of ampicillin, and the plates were incubated overnight at 37 °C and viable colonies were counted. Incubations were done in triplicates and the experiments were repeated twice. Results are expressed as means of three determinations ± SEM.

[3] = test system: E. coli mutant cells CGSC strain 8547 SbmA^- expressing only ABC-tmfA importer; experiment: Growth/viability of E. coli mutant CGSC strain 8547 SbmA^- expressing ABC-tmfA importer; format: cell-based, Escherichia coli
Procedure: E. coli CGSC strain […] lacking the SbmA importer expressing the ABCtmfA receptor/importer was prepared using plasmid pTAC-MAT-2 ABCtmfA importer/receptor as described earlier. [3,4,5 ^3H]Leucine 250 μCi, Spc Act 100–150 Ci/mmol was purchased from Perkin Elmer (Waltham, MA, USA). AeaTMOF-FITC (H-YDPAPPPPPPK(FITC)K-OH) was synthesized at the University of Colorado Anschutz School of Medicine protein core. AeaTMOF-FITC was purified by HPLC showing a single peak, and mass spectrometry analysis of the peak identified the 3 expected ions at 455.7, 607.3, and 910.3, showing an expected Mr 1019.56 as was described earlier. Synthetic AeaTMOF (H-YDPAPPPPPP-OH) and a short Oncocin112(1–13) (H-VDKPPYLPRPRPP-OH), a 13 amino acids oncocin112 peptide, 6 amino acids shorter than the original oncocin112 of 19 amino acids, were synthesized and purified by HPLC [16]. After HPLC purifications of AeaTMOF, oncocin112 (1–13), and AeaTMOF-FITC, the TFA ions were exchanged with phosphate ions.
as §1

In the case of “H-YDPAPPPPPPK(FITC)K-OH [AeaTMOF-FITC, H-[…](FITC)K-OH, FITC-labelled AeaTMOF]”, the “Kassoc, affinity constant” value (E. coli ribosome; calculated from specific binding KD) is reported as 4.3e+07 M⁻¹, the Kd (E. coli ribosome; purified E. coli (BL21) ribosomes 9.4 μg, AeaTMOF-FITC 0–0.2 μM, tight association buffer pH 7.6, 60 min at 30 °C, TCA precipitation, fluorescence, nonspecific binding subtracted, nonlinear regression, ± SEM, n = 6) is reported as 23 ± 3.4 nM and the “Bmax, ribosome binding” value (E. coli ribosome; purified E. coli ribosomes, AeaTMOF-FITC 0–0.2 μM, pH 7.6, 60 min at 30 °C, fluorescence, nonlinear regression, ± SEM, n = 6) is reported as 0.553 ± 0.023 pmol/μg ribosome.
In the case of “NPTNLH [NebTMOF, NPTNLH, trypsin modulating oostatic factor of Neobellieria bullata, reference compound]”, the “Effect on translation of trypsin mRNA” value [1] is listed as “stop the translation of trypsin mRNA”.
For “VDKPPYLPRPRPP [Oncocin112 (1–13), reference compound]”, the “Effect on Beetle luciferase biosynthesis versus activity” value (luciferase) was “inhibits Beetle luciferase biosynthesis and not its activity”, the “Inhibition of luciferase biosynthesis at lowest concentration” value (bacterial 70 S ribosome; AeaTMOF at 0.001 μM, Oncocin112 (1–13) at 0.01 μM, 2 h at 37 °C) was “do not inhibit the biosynthesis of luciferase” and the IC50 (bacterial 70 S ribosome; E. coli S30 lysate, pBestluc DNA, 2 h at 37 °C, peptide 0.001 to 750 μM, luminescence read-out, mean of three determinations, read-out: IC50, inhibition of luciferase biosynthesis (luminescence)) was 2000 nM. The “IC50 increase compared with AeaTMOF” value (bacterial 70 S ribosome; IC50 2 μM versus AeaTMOF) was “twofold increase”, the E. coli growth ([2]; 630 nm) was “significantly inhibited the growth of the E. coli cells” and the “Viable colonies at end of incubation” value ([2]; initial 2.7 × 10^4 cells, LB medium, plated on LB agar, triplicates) was 4–10 colonies. The E. coli growth ([3]; SbmA^- cells expressing ABC-tmfA importer, 3 and 10 mM peptide, 37 °C, 18 h, 630 nm, p < 0.05 for inhibition) was “grew at the same rate”, the “E. coli cell growth (discussion)” value ([3]; cells that only expressed ABCtmfA receptor/importer, up to 10 mM) was “did not affect the cell growth, even at high concentrations of 10 mM” and the Importer used ([3]; inferred from growth of SbmA^+ and SbmA^- ABC-tmfA E. coli, 3 and 10 mM) was “can only use the bacterial natural importer SbmA”.
